“Also recorded” adds a separate entry of the source. Read-outs that look alike come from different tables or passages of the source.
Assays:
[1] = test system: primary cultured pig hepatocytes; assay: Steroid metabolism in primary cultured pig hepatocytes, LC-TOF-MS of cell culture medium; details: for Peak height of the ion chromatogram of the steroid metabolite in cell culture medium, C: 48 h incubation in absence of enzyme inhibitors, 10 µM parent steroid, Mean ± SD
[2] = test system: primary cultured pig hepatocytes; details: male, Large White, 10 µM
in vitro = details: male, Large White, pig
Method: Primary pig hepatocytes were isolated from Large White male pigs (3–5 days old) using procedure described by Chen et al.. The experimental protocol for using animals was approved by the Animal Ethics Committee of the China Agricultural University, Beijing, China (permission number: 2011-11-23-1). […] Approximately 5×10^6 cells were plated into 10 cm Petri dishes with 10 ml of Dulbecco modified Eagle’s medium (DMEM) containing 20% fetal bovine serum (FBS) supplemented with insulin (10 mg/L), penicillin (100 U/mL) and streptomycin (100 µg/mL). Hepatocytes were incubated for 24 h in a humidified atmosphere at 37°C with 5% of CO2.
After the incubation, the primary pig hepatocytes were washed three times with phosphate buffer saline solution (PBS) before they were treated with steroids and/or inhibitors. In steroid metabolism studies, hepatocytes were incubated in 10 ml of basal growth medium containing phenol red-free DMEM with 10% of charcoal treated FBS fortified with 10 µM (final concentration) of androstenone, 17β-estradiol or dihydrotestosterone. In the inhibition experiments, 10 µM (final concentration) of trilostane or apigenin, the specific inhibitors of 3βHSD and 17βHSD respectively, were added to hepatocytes simultaneously with androstenone, 17β-estradiol or dihydrotestosterone. Solutions of both, the inhibitors and steroids, were prepared in methanol. […] In the cytotoxicity text, the steroids were incubated with different concentrations of inhibitors (1, 10, 25 and 50 µM) for 48 h. The cell viability was analyzed using CellTiter-Glo Luminescent Cell Viability Assay (Promega, Madison, WI) reagent following manufacture’s protocol. The cell culture medium was collected at the following time points: 0, 6, 12, 18, 24, 30, 36, 42 and 48 h after adding steroids and/or inhibitors, and was stored at −80°C until metabolites analysis. Cells treated with basal growth medium were used as control. The experiments were repeated in three different days. Experiments on each of the three days were conducted in triplicate.

17βHSD = assay: Inhibition of steroid glucuronide metabolite formation in pig hepatocytes by the 17βHSD inhibitor; type: cell-based
Method: (§1) The experiments were repeated in three different days.
(§2) Extraction procedure for steroid metabolites was as follows: two mL of cell culture medium was taken in duplicate from each hepatocytes incubation and split into two samples, 1 mL per sample. One sample was treated with 0.1 mL of 30% trichloroacetic acid (TCA) to precipitate protein. The protein precipitation procedure was optimized by analyzing protein residues using HPLC at ultraviolet wavelength (240 nm). Another sample was pre-treated with β-glucuronidase prior to protein precipitation. The pre-treatment involved incubation with 2 mL of PBS buffer (pH = 5.0) in the presence of β-glucuronidase (2.08 µkat) for 16 h at 37°C. The samples were centrifuged at 17226 g for 10 min. All of the supernatants were collected and loaded onto a SPE cartridge (Bond Elut-C18, 500 mg/3 mL, Agilent, Lake Forest, CA, USA) preconditioned with 3 mL of methanol and water. The cartridges were washed with 3 mL of water and 3 mL 5% of methanol and then vacuum dried. The analytes were eluted with 9 mL of acetonitrile (ACN). The elutants were evaporated under nitrogen and reconstituted with 400 µL of 62.5% methanol. Solvents were passed through 0.22 µm filter paper (Jinteng company, Tianjin, China), and then transferred to inserts for analysis. The recoveries were determined by analyzing spiked samples in a basal medium. The recoveries for androstenone, 17β-estradiol and dihydrotestosterone were in a range of 60–95%.
(§3) Steroid metabolites were analyzed by LC-TOF-MS (QSTAR Elite, AB Sciex, ON, Canada) equipped with an electrospray ion source (TurboIonSpray) and controlled by Analyst QS 2.0 software. ESI source was run on both, a positive and negative mode. Spectrometry parameters were as follows: ion source GS1 and GS2 were 0.41 and 0.34 MPa, respectively. Curtain gas was 0.14 MPa. Collision gas was 0.04 MPa. All the gases were supplied with nitrogen (purity≥99.995%). IonSpray voltage was 5500 V (ESI+) and −4200 V (ESI–). Ion source temperature was 500°C. Declustering Potential (DP) was 60 V (ESI+) and −60 V (ESI–). The Q1 mass monitoring was conducted using a scan mode in the range from 200 to 600 m/z. Mass intensity above 100 counts was set for acquiring product ions on TOF analyzer. An information dependent acquisition (IDA) method was set to optimize data acquisition.
(§4) Chromatographic separation was conducted using HPLC coupled to mass spectrometry (1200 SL, Agilent Technologies, USA) equipped with a binary pump, vacuum solvent degasser, column oven and autosampler (Agilent Technologies, Waldbronn, Germany). The column used was Zorbax Eclipse Plus C18 (2.1×100 mm, 3.5 µm) with a guard column (2.1×12.5 mm, 5 µm) (Agilent Technologies, USA). For the ESI+ mode, the mobile phase was 0.1% formic acid in water (A) and methanol (B). For the ESI– mode, the mobile phase was 0.1% ammonium in water (A) and methanol (B). The linear gradient used was as follows: 50% to 95% solvent B at 0–5 min; 95% solvent at 9 min, 50% solvent B at 9.1 and 15 min. The flow rate was 300 µL/min, and the sample injection volume was 20 µL.

3βHSD = target: T1, 3βHSD (Sus scrofa, UniProt Q9N119); assay: Inhibition of steroid glucuronide metabolite formation in pig hepatocytes by the 3βHSD inhibitor; type: cell-based
T1 construct: endogenous in cells; host or cells: primary hepatocytes of Large White male pigs
T1 sequence (Q9N119 1-373): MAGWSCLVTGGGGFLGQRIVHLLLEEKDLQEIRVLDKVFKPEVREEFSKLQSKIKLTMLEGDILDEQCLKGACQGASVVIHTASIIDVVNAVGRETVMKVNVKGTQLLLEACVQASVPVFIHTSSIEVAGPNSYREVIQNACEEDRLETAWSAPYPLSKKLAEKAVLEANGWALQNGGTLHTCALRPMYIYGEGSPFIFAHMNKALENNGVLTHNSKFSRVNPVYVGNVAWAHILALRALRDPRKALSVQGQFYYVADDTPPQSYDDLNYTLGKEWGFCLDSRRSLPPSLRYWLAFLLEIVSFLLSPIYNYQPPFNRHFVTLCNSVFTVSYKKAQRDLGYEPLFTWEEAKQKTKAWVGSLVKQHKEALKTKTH
Method: as §1, §2, §3, §4

[3] = 10 µM inhibitor with 17β-estradiol
[4] = 10 µM inhibitor with dihydrotestosterone
[5] = 48 h, 10 µM apigenin with 10 µM 17β-estradiol, Mean ± SD
[6] = 48 h, 10 µM trilostane with 10 µM 17β-estradiol, Mean ± SD

For “5α-androst-16-en-3β-glucuronide [Androstenone glucuronide]”, the “Peak height of the ion chromatogram of the steroid metabolite in cell culture medium, C” value (“Peak height of the ion chromatogram … C” for short) [1] was 3.4±0.5 cps/1000.
With C[C@]12CC[C@@H]3c4ccc(O)cc4CC[C@H]3[C@@H]1CC[C@@H]2O [17β-Estradiol] the “Share of 17β-estradiol oxidized at C-17 to estrone, forming E1-G” value [2] was “over 80%”, the “Share of 17β-estradiol undergoing direct phase II metabolism, forming E2-G” value [2] was “Less than 20%” and the “Parent steroid in cell culture medium after incubation with hepatocytes” value ([2]; 6 h) was “No 17β-estradiol was found”. For the same molecule, the viability at 48 h, 1 µM (in vitro) was 109 ± 4.8%, the viability at 48 h, 10 µM (in vitro) was 91.6 ± 0.4% and the viability at 48 h, 25 µM (in vitro) was 89.8 ± 8%. The viability at 48 h, 50 µM (in vitro) was 83.6 ± 1.6%.
In the case of C[C@]12CCC(=O)C[C@@H]1CC[C@@H]1[C@@H]2CC[C@]2(C)C=CC[C@@H]12 [Androstenone, 5α-androst-16-ene-3-one], the Metabolite identified [2] is reported as “hydroxylated to 3β-A prior to glucuronidation”, the viability at 48 h, 1 µM (in vitro) is reported as 90.6 ± 3.8% and the viability at 48 h, 10 µM (in vitro) is reported as 89 ± 7.2%. It also gave a viability at 48 h, 25 µM (in vitro) of 77.2 ± 0.6% and a viability at 48 h, 50 µM (in vitro) of 78.7 ± 6.8%.
With O=c1cc(-c2ccc(O)cc2)oc2cc(O)cc(O)c12 [Apigenin, apigenin] the “Inhibition of E2-G and E1-G formation” value (17βHSD; [3]) was “no significant inhibition”, the “Effect on the level of androstenone metabolite” value (17βHSD; 10 µM inhibitor with androstenone) was “did not affect significantly” and the “Effect on DHT-G level / formation” value (17βHSD; [4]) was “did not have any effect”. The “Peak height of Estradiol 3β-glucuronide in cell culture medium” value (17βHSD; [5]) was 2.6±0.1 cps/1000, the “Peak height of Estrone glucuronide in cell culture medium” value (17βHSD; [5]) was 15.3±1.1 cps/1000 and the “Peak height of Androstenone glucuronide in cell culture medium” value (17βHSD; 48 h, 10 µM apigenin with 10 µM androstenone, Mean ± SD) was 3.7±0.9 cps/1000. For the same molecule, the “Peak height of Dihydrotestosterone 17β-glucuronide in cell culture medium” value (17βHSD; 48 h, 10 µM apigenin with 10 µM dihydrotestosterone, Mean ± SD) was 11.5±0.5 cps/1000, the viability at 48 h, 1 µM (in vitro) was 97.7 ± 3.2% and the viability at 48 h, 10 µM (in vitro) was 83.5 ± 5.9%. The viability at 48 h, 25 µM (in vitro) was 64.2 ± 1.7% and the viability at 48 h, 50 µM (in vitro) was 69.8 ± 0.9%.
For C[C@]12CCC(=O)C[C@@H]1CC[C@@H]1[C@@H]2CC[C@]2(C)[C@@H](O)CC[C@@H]12 [Dihydrotestosterone], the Metabolite identified ([1]; 10 µM steroid, LC-TOF-MS, cell culture medium) was 5α-dihydrotestosterone-17β-glucuronide, the “Parent steroid in cell culture medium after incubation with hepatocytes” value ([1]; 10 µM steroid, after 6 h of incubation) was “rapidly metabolized; also recorded: No dihydrotestosterone was found” and the viability at 48 h, 1 µM (in vitro) was 96.7 ± 0.1%. The viability at 48 h, 10 µM (in vitro) was 84.3 ± 3.9%, the viability at 48 h, 25 µM (in vitro) was 79.1 ± 2.2% and the viability at 48 h, 50 µM (in vitro) was 76.1 ± 4.7%.
With C[C@]12CC[C@@H]3c4ccc(O[C@@H]5O[C@H](C(=O)O)[C@@H](O)[C@H](O)[C@H]5O)cc4CC[C@H]3[C@@H]1CC[C@@H]2O [Estradiol 3β-glucuronide, β-estradiol-3-glucuronide] the “Peak height of the ion chromatogram … C” value [1] was 3.1±0.8 cps/1000.
In the case of C[C@]12CC[C@@H]3c4ccc(O[C@@H]5O[C@H](C(=O)O)[C@@H](O)[C@H](O)[C@H]5O)cc4CC[C@H]3[C@@H]1CCC2=O [Estrone glucuronide, estrone-3-glucuronide], the “Peak height of the ion chromatogram … C” value [1] is reported as 16.5±2.2 cps/1000.
With C[C@]12CC[C@H]3[C@@H](CC[C@@]45O[C@@H]4C(O)=C(C#N)C[C@]35C)[C@@H]1CC[C@@H]2O [Trilostane, trilostane] the “Inhibition of E2-G and E1-G formation” value (3βHSD; [3]) was “no significant inhibition”, the “Effect on DHT-G formation” value (3βHSD; [4]) was “greatly inhibited” and the “Decrease in the formation of androstenone metabolite” value (3βHSD; 10 µM inhibitor, cell culture medium) was 70%. The “Reduction of DHT-G formation” value (3βHSD; 10 µM inhibitor, hepatocytes) was roughly 86%, the “Peak height of Estradiol 3β-glucuronide in cell culture medium” value (3βHSD; [6]) was 2.7±0.4 cps/1000 and the “Peak height of Estrone glucuronide in cell culture medium” value (3βHSD; [6]) was 13.5±1.7 cps/1000. For the same molecule, the “Peak height of Androstenone glucuronide in cell culture medium” value (3βHSD; 48 h, 10 µM trilostane with 10 µM androstenone, Mean ± SD) was 1.0±0.6 cps/1000, the “Peak height of Dihydrotestosterone 17β-glucuronide in cell culture medium” value (3βHSD; 48 h, 10 µM trilostane with 10 µM dihydrotestosterone, Mean ± SD) was 1.6±0.2 cps/1000 and the viability at 48 h, 1 µM (in vitro) was 91.8 ± 0.1%. For the same molecule, the viability at 48 h, 10 µM (in vitro) was 82.4 ± 2.1%, the viability at 48 h, 25 µM (in vitro) was 79.1 ± 2.9% and the viability at 48 h, 50 µM (in vitro) was 69.2 ± 1.8%.
